Measurements from US10233174B2 (THERAVANCE BIOPHARMA R&D IP, LLC, priority 2017, dated 2019).

Target: β-glucuronidase (Escherichia coli, UniProt P05804)
Assay: Assay 11: Release of H2S and Tofacitinib (incubation with β-glucuronidase and monobromobimane)
Format: in vitro ADME
Conditions: 50 μM compound 1, β-glucuronidase 100 units/mL, MBB 100 μM, pH 7.4, 37° C.
Method: The method used to detect H2S was previously described in Tan et al., Nature Scientific Reports, 2017, 7:46278, DOI: 10.1038/srep46278.
Compound 1 (50 μM) was incubated with β-glucuronidase (100 units/mL) and monobromobimane (MBB, 100 μM) in potassium phosphate buffer pH 7.4 (100 mM) for 60 min at 37° C. In addition, incubations were carried out with and without a) β-glucuronidase and b) MBB as negative control. Incubation of SN38-Glucuronide was also carried out with β-glucuronidase as a positive control for β-glucuronidase activity. The reactions were terminated at 60 min by the addition of three volumes of ice-cold acetonitrile to the incubation mixture. The incubation samples were centrifuged (4° C., 2200×g, 10 minutes) and the supernatants were transferred to amber HLPC vials. All samples were stored at 4° C. until the analysis. The samples were analyzed using a Thermo Orbitrap LC-MS/MS system.
H2S was trapped using monobromobimane (MBB) to form sulfide dibimane (SDB).

Chain of β-glucuronidase (P05804 whole entry): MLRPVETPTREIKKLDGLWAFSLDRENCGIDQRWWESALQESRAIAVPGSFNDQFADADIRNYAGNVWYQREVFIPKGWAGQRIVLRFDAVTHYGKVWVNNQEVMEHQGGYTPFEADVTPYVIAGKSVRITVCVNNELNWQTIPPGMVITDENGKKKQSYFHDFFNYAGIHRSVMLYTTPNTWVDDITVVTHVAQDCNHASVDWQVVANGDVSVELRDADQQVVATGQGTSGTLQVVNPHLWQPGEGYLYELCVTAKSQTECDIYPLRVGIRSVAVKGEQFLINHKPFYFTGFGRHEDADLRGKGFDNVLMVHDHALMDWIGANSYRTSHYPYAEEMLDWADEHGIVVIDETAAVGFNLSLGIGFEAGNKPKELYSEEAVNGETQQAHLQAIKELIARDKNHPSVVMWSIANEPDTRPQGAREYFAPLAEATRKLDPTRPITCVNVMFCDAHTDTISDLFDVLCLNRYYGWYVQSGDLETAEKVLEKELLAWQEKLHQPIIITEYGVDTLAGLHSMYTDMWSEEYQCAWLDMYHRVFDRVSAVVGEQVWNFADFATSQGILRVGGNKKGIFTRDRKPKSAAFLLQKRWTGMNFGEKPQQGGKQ

`C[C@@H]1CCN(C(=O)CC#N)C[C@@H]1N(C)c1ncnc2c1ccn2C(=O)N(C)CCN(C)C(=S)OCc1ccc(O[C@@H]2O[C@H](C(=O)O)[C@@H](O)[C@H](O)[C@H]2O)c([N+](=O)[O-])c1` [Compound 1, (2S,3S,4S,5R,6S)-6-(4-((((2-(4-(((3R,4R)-1-(2-cyanoacetyl)-4-methylpiperidin-3-yl)(methyl)amino)-N-methyl-7H-pyrrolo[2,3-d]pyrimidine-7-carboxamido)ethyl)(methyl)carbamothioyl)oxy)methyl)-2-nitrophenoxy)-3,4,5-trihydroxytetrahydro-2H-pyran-2-carboxylic acid] was tested, and the “% (MS Peak Area) (60 min) of compound 1 (Parent) remaining” value was 0%.
